# How the values were obtained:
# [1] = target: Calcium/calmodulin-dependent protein kinase kinase 1 (Homo sapiens, UniProt Q8N5S9); experiment: Inhibition of CaMKK1 (unknown origin) incubated for 20 mins in presence of kinase tracer 236 by TR-FRET
# [2] = target: Calcium/calmodulin-dependent protein kinase kinase 2 (Homo sapiens, UniProt Q96RR4); experiment: Induction of ePL tagged degradation of CaMKK2 (unknown origin) expressed in […] cells incubated for 24 hrs by luminescence based analysis; assay type: cell-based, HEK293T
# Calcium/calmodulin-dependent protein kinase kinase 2, sequence (Q96RR4 whole entry): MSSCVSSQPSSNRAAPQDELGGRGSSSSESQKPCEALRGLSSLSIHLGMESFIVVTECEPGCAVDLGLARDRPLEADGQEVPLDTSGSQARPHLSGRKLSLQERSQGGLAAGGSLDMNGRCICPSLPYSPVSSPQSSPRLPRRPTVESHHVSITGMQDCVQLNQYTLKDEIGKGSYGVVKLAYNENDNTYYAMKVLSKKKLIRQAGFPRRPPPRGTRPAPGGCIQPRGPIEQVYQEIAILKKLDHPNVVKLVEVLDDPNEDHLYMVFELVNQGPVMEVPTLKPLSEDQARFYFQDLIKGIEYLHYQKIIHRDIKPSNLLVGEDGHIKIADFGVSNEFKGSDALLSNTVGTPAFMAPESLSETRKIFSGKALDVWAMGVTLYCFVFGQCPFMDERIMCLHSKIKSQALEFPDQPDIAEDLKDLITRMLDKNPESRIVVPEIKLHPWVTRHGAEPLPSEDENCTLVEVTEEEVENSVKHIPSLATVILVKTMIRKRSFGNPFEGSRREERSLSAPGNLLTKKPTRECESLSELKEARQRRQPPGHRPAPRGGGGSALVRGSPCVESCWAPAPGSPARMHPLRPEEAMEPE
# [3] = Oral bioavailability in C57BL/6 mouse at 10 mg/kg measured upto 72 hrs; assay type: ADME, organism-based; details: in vivo
# [4] = Tmax in C57BL/6 mouse at 10 mg/kg, po measured upto 72 hrs; assay type: ADME, organism-based; details: in vivo
# [5] = Tmax in C57BL/6 mouse at 10 mg/kg, sc measured upto 72 hrs; assay type: ADME, organism-based; details: in vivo
# [6] = AUC (0 to 24 hrs) in C57BL/6 mouse at 10 mg/kg, po measured upto 72 hrs; assay type: ADME, organism-based; design: dose 10 mg/kg, time < 72 hrs, route po; details: in vivo
# [7] = Cmax in C57BL/6 mouse at 10 mg/kg, po measured upto 72 hrs; assay type: ADME, organism-based; design: time < 72 hrs, dose 10 mg/kg, route po; details: in vivo
# [8] = Bioavailability in C57BL/6 mouse at 10 mg/kg, sc measured upto 72 hrs; assay type: ADME, organism-based; details: in vivo
# [9] = AUC (0 to 24 hrs) in C57BL/6 mouse at 10 mg/kg, sc measured upto 72 hrs; assay type: ADME, organism-based; design: time < 72 hrs, dose 10 mg/kg, route sc; details: in vivo
# [10] = Cmax in C57BL/6 mouse at 10 mg/kg, sc measured upto 72 hrs; assay type: ADME, organism-based; design: dose 10 mg/kg, time < 72 hrs, route sc; details: in vivo
# [11] = test system: A-427; experiment: Antiproliferative activity against human A-427 cells assessed as reduction in cell growth incubated for 48 hrs by CellTiter assay; details: A-427, 48 h
# [12] = target: Von Hippel-Lindau disease tumor suppressor/Elongin B/Elongin C (Homo sapiens, UniProt P40337); experiment: Binding affinity to N-terminal 6 his tagged VHL (54 to 213 residues)/truncated ElonginC (17 to 122 residues) /full length ElonginB (unknown origin) expressed in Escherichia coli assessed as dissociation constant measured upto 300 secs by SPR analysis
# Von Hippel-Lindau disease tumor suppressor/Elongin B/Elongin C, sequence (P40337 whole entry, looked up, the tested form may be a part): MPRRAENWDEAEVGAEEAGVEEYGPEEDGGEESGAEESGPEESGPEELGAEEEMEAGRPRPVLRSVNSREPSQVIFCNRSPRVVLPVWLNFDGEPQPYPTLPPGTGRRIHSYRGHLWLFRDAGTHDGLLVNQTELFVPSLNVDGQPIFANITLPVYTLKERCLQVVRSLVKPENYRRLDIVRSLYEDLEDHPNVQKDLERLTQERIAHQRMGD
# [13] = Half life in C57BL/6 mouse at 10 mg/kg, sc measured upto 72 hrs; assay type: ADME, organism-based; details: in vivo
# [14] = Half life in C57BL/6 mouse at 10 mg/kg, po measured upto 72 hrs; assay type: ADME, organism-based; details: in vivo
# [15] = Tmax in Beagle dog at 3 mg/kg, po or 1 mg/kg, iv measured upto 72 hrs; assay type: ADME, organism-based, Canis lupus familiaris; details: in vivo
# [16] = AUC (0 to 24 hrs) in Sprague-Dawley rat at 3 mg/kg, po or 1 mg/kg, iv measured upto 24 hrs; assay type: ADME, organism-based; design: time < 24 hrs, dose 3 mg/kg, route po; details: in vivo
# [17] = Bioavailability in Sprague-Dawley rat 3 mg/kg, po or 1 mg/kg, iv measured upto 24 hrs; assay type: ADME, organism-based; details: in vivo
# [18] = Plasma protein binding in Sprague-Dawley rat; assay type: ADME, cell-free; details: read-out: PPB (converted)
# [19] = AUC (0 to 72 hrs) in Beagle dog at 3 mg/kg, po or 1 mg/kg, iv measured upto 72 hrs; assay type: ADME, organism-based, Canis lupus familiaris; design: dose 3 mg/kg, time < 72 hrs, route po; details: in vivo
# [20] = Bioavailability in Beagle dog at 3 mg/kg, po or 1 mg/kg, iv measured upto 72 hrs; assay type: ADME, organism-based, Canis lupus familiaris; details: in vivo
# [21] = Cmax in Sprague-Dawley rat at 3 mg/kg, po or 1 mg/kg, iv measured upto 24 hrs; assay type: ADME, organism-based; design: dose 3 mg/kg, time < 24 hrs, route po; details: in vivo
# [22] = Half life in Cynomolgus monkey at 3 mg/kg, po or 1 mg/kg, iv measured upto 72 hrs; assay type: ADME, organism-based, Macaca fascicularis; details: in vivo
# [23] = Volume of distribution at steady state in Sprague-Dawley rat at 3 mg/kg, po or 1 mg/kg, iv measured upto 24 hrs; assay type: ADME, organism-based; details: in vivo
# [24] = Plasma protein binding in Cynomolgus monkey; assay type: ADME, cell-free, Macaca fascicularis; details: read-out: PPB (converted)
# [25] = Cmax in Cynomolgus monkey at 3 mg/kg, po or 1 mg/kg, iv measured upto 72 hrs; assay type: ADME, organism-based, Macaca fascicularis; design: time < 72 hrs, dose 3 mg/kg, route po; details: in vivo
# [26] = target: Voltage-gated inwardly rectifying potassium channel KCNH2 (Homo sapiens, UniProt Q12809); experiment: Inhibition of human ERG; assay type: toxicity
# Voltage-gated inwardly rectifying potassium channel KCNH2, sequence (Q12809 whole entry): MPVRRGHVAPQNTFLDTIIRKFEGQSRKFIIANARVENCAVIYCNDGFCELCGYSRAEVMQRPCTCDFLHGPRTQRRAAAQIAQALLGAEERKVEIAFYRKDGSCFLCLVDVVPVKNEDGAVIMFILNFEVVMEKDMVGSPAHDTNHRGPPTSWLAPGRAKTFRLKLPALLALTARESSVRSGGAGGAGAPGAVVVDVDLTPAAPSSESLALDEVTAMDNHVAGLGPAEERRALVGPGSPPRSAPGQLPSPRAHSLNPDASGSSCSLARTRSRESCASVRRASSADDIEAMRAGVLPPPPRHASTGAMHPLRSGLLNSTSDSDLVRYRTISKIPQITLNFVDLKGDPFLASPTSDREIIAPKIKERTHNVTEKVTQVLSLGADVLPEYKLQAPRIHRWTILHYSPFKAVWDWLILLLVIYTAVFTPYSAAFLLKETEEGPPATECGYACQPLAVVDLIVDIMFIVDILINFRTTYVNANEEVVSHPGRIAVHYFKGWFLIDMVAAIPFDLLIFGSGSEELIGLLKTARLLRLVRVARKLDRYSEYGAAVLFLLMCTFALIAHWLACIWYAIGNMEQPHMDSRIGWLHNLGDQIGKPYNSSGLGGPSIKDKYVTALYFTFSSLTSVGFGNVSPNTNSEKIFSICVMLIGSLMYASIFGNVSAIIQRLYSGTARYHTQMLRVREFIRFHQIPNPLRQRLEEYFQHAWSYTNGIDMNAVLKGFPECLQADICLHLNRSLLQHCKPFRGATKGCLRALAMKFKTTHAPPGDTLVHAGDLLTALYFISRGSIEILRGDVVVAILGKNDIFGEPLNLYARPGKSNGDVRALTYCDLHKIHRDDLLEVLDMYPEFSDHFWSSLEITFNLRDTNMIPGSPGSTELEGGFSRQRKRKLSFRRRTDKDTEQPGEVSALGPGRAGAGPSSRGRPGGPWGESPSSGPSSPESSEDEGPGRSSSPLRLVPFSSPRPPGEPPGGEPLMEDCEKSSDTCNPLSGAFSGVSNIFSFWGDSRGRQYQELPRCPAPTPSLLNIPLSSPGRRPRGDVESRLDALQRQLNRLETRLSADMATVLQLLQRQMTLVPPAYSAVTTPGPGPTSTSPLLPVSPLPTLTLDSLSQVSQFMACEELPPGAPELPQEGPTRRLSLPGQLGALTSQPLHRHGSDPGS
# [27] = Plasma protein binding in Beagle dog; assay type: ADME, cell-free, Canis lupus familiaris; details: read-out: PPB (converted)
# [28] = Cmax in Beagle dog at 3 mg/kg, po or 1 mg/kg, iv measured upto 72 hrs; assay type: ADME, organism-based, Canis lupus familiaris; design: time < 72 hrs, dose 3 mg/kg, route po; details: in vivo
# [29] = AUC (0 to 72 hrs) in Cynomolgus monkey at 3 mg/kg, po or 1 mg/kg, iv measured upto 72 hrs; assay type: ADME, organism-based, Macaca fascicularis; design: dose 3 mg/kg, time < 72 hrs, route po; details: in vivo
# [30] = Tmax in Cynomolgus monkey at 3 mg/kg, po or 1 mg/kg, iv measured upto 72 hrs; assay type: ADME, organism-based, Macaca fascicularis; details: in vivo
# [31] = Bioavailability in Cynomolgus monkey at 3 mg/kg, po or 1 mg/kg, iv measured upto 72 hrs; assay type: ADME, organism-based, Macaca fascicularis; details: in vivo
# [32] = Volume of distribution in steady state in Beagle dog at 3 mg/kg, po or 1 mg/kg, iv measured upto 72 hrs; assay type: ADME, organism-based, Canis lupus familiaris; details: in vivo
# [33] = Tmax in Sprague-Dawley rat at 3 mg/kg, po or 1 mg/kg, iv measured upto 24 hrs; assay type: ADME, organism-based; details: in vivo
# [34] = Half life in Beagle dog at 3 mg/kg, po or 1 mg/kg, iv measured upto 72 hrs; assay type: ADME, organism-based, Canis lupus familiaris; details: in vivo
# [35] = Half life in Sprague-Dawley rat at 3 mg/kg, po or 1 mg/kg, iv measured upto 24 hrs; assay type: ADME, organism-based; details: in vivo
# [36] = Plasma protein binding in human; assay type: ADME, cell-free; design: dose or concentration left out as unconfirmed; details: route po, read-out: PPB (converted)
# Calcium/calmodulin-dependent protein kinase kinase 1, sequence (Q8N5S9 whole entry): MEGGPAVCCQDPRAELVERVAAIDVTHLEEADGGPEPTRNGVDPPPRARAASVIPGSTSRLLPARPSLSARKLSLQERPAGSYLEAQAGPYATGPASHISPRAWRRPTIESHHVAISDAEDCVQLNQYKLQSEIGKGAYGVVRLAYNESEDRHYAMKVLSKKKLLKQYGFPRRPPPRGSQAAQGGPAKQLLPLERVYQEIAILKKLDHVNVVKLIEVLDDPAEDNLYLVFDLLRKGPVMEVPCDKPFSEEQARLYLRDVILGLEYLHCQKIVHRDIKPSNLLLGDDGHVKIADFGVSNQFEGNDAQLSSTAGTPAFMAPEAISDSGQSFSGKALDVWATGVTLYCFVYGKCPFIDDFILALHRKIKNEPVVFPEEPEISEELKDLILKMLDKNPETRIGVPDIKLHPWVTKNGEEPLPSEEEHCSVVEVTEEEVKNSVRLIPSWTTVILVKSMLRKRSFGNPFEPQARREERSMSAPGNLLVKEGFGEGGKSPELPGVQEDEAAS
smiles,measurement,setting,value
CCOc1cc2ncnc(-c3ccc(C(=O)O)c(C4CCCC4)c3)c2cc1F,IC50,[1],0.054 µM
Cc1ncsc1-c1ccc(CNC(=O)[C@@H]2C[C@@H](O)CN2C(=O)[C@@H](NC(=O)CCCCCCCCCCCOc2ccc3c(-c4ccc(C(=O)O)c(C5CCCC5)c4)ncnc3c2)C(C)(C)C)cc1,EC50,[2],4.5 µM
Cc1ncsc1-c1ccc(CNC(=O)[C@@H]2C[C@@H](O)CN2C(=O)[C@@H](NC(=O)CCCCCCCCOc2ccc3c(-c4ccc(C(=O)O)c(C5CCCC5)c4)ncnc3c2)C(C)(C)C)cc1,EC50,[2],0.62 µM
Cc1ncsc1-c1ccc(CNC(=O)[C@@H]2C[C@@H](O)CN2C(=O)[C@@H](NC(=O)CCCCCCCCCOc2ccc3c(-c4ccc(C(=O)O)c(C5CCCC5)c4)ncnc3c2)C(C)(C)C)cc1,bioavailability,[3],18%
same,Tmax,[4],0.5 h
same,Tmax,[5],0.5 h
same,AUC(0-t) at 72 h,[6],3.96 µM·h
same,Cmax,[7],3.21 µM
same,bioavailability,[8],100%
same,AUC(0-t) at 72 h,[9],39.9 µM·h
same,Cmax,[10],7.18 µM
same,EC50,[11],> 8 µM
same,IC50,[1],0.094 µM
same,Kd,[12],0.13 µM
same,half-life,[13],24 h
same,half-life,[14],8.1 h
CCOc1cc(F)c2c(-c3ccc(C(=O)O)c(C(C)C)c3)ncnc2c1,Tmax,[15],0.5 h
same,AUC(0-t) at 24 h,[16],58 µM·h
same,bioavailability,[17],80%
same,fraction unbound,[18],0.012
same,AUC(0-t) at 72 h,[19],79 µM·h
same,bioavailability,[20],68%
same,Cmax,[21],19 µM
same,half-life,[22],20 h
same,Vdss,[23],0.57 L/kg
same,fraction unbound,[24],0.007
same,Cmax,[25],28 µM
same,IC50,[26],> 30 µM
same,IC50,[1],0.012 µM
same,fraction unbound,[27],0.02
same,Cmax,[28],30 µM
same,AUC(0-t) at 72 h,[29],282 µM·h
same,Tmax,[30],1.7 h
same,bioavailability,[31],95%
same,Vdss,[32],0.44 L/kg
same,Tmax,[33],3 h
same,half-life,[34],11 h
same,half-life,[35],4.9 h
same,fraction unbound at 72 h,[36],0.003
CCOc1ccc2c(-c3ccc(C(=O)O)c(C(C)C)c3)ncnc2c1,IC50,[1],0.047 µM
Cc1ncsc1-c1ccc(CNC(=O)[C@@H]2C[C@@H](O)CN2C(=O)[C@@H](N(C)C(=O)CCCCCCCCCOc2ccc3c(-c4ccc(C(=O)O)c(C5CCCC5)c4)ncnc3c2)C(C)(C)C)cc1,EC50,[2],> 10 µM
Cc1ncsc1-c1ccc(CNC(=O)[C@@H]2C[C@@H](O)CN2C(=O)[C@@H](NC(=O)CCCCCCCCCCOc2ccc3c(-c4ccc(C(=O)O)c(C5CCCC5)c4)ncnc3c2)C(C)(C)C)cc1,EC50,[2],0.53 µM
Cc1ncsc1-c1ccc(CNC(=O)[C@@H]2C[C@@H](O)CN2C(=O)[C@@H](NC(=O)CCCCCCOc2ccc3c(-c4ccc(C(=O)O)c(C5CCCC5)c4)ncnc3c2)C(C)(C)C)cc1,EC50,[2],2 µM
CCOc1cc2ncnc(-c3ccc(C(=O)O)c(C(C)C)c3)c2cc1F,IC50,[1],0.011 µM
Cc1ncsc1-c1ccc(CNC(=O)[C@@H]2C[C@@H](O)CN2C(=O)[C@@H](NC(=O)CCCCCCCOc2ccc3c(-c4ccc(C(=O)O)c(C5CCCC5)c4)ncnc3c2)C(C)(C)C)cc1,EC50,[2],0.51 µM
Cc1ncsc1-c1ccc(CNC(=O)[C@@H]2C[C@@H](O)CN2C(=O)[C@@H](NC(=O)CCCCCOc2ccc3c(-c4ccc(C(=O)O)c(C5CCCC5)c4)ncnc3c2)C(C)(C)C)cc1,EC50,[2],> 10 µM
